Reference: PMC5934274 (Journal of medicinal chemistry, 2016)
Like-named read-outs stand apart in the source and are kept apart here.

Key:
[1] = target: PARP14 (Homo sapiens, UniProt Q460N5); test: In vitro ADP-ribosylation assay, PARP14; format: biochemical; conditions: read-out: KM NAD+; PARP14 ART
[2] = target: T1, PARP10 (Homo sapiens, UniProt Q53GL7); conditions: read-out: KM NAD+ (literature); PARP10 FL row; cited from earlier work
T1 sequence (Q53GL7 1-1025): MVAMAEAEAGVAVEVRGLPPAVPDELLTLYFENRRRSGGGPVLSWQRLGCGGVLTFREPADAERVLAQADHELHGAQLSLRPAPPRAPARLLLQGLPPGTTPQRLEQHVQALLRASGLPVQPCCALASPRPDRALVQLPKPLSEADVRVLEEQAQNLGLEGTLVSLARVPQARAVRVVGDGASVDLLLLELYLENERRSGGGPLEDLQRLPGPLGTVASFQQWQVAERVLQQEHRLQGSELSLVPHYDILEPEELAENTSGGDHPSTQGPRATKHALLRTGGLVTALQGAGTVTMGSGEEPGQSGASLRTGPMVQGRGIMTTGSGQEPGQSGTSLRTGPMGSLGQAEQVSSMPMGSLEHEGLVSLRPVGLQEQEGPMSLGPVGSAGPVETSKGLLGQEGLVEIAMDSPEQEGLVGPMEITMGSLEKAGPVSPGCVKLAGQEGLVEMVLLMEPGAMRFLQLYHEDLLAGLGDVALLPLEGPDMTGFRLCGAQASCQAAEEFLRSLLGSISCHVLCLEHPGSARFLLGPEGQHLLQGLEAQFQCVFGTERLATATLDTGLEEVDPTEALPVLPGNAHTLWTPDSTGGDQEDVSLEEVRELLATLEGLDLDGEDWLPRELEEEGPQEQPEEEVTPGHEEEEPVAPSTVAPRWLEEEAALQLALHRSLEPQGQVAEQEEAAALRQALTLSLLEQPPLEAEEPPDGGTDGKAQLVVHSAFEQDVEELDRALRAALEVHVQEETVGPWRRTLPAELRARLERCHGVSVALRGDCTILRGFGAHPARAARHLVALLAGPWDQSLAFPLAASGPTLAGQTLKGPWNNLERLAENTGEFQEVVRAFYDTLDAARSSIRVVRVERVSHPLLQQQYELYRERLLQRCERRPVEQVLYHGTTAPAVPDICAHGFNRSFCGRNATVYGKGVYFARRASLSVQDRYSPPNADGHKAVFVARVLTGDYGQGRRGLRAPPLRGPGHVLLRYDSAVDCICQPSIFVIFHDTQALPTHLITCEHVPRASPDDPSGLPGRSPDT

[3] = target: T2, PARP16 (Homo sapiens, UniProt Q8N5Y8); conditions: read-out: KM NAD+ (literature); PARP16 FL row; cited from earlier work
T2 sequence (Q8N5Y8 1-322): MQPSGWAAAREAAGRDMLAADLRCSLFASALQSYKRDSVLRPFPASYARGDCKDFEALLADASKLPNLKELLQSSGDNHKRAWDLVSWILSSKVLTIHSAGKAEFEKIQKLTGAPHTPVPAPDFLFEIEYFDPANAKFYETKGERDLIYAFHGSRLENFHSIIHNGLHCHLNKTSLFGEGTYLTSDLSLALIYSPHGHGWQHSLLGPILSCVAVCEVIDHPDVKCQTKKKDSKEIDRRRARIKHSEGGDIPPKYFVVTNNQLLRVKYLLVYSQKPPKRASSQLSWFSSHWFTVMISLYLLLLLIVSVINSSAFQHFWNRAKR

[4] = system: PARP1; conditions: read-out: KM NAD+ (literature), cited from earlier work
[5] = system: PARP2; conditions: read-out: KM NAD+ (literature); PARP2 FL row; cited from earlier work
[6] = system: PARP1; test: In vitro ADP-ribosylation assay, PARP1; format: biochemical, human; conditions: selectivity toward PARP1 and -2 over other PARP family members

Sequence of PARP14 (Q460N5 whole entry): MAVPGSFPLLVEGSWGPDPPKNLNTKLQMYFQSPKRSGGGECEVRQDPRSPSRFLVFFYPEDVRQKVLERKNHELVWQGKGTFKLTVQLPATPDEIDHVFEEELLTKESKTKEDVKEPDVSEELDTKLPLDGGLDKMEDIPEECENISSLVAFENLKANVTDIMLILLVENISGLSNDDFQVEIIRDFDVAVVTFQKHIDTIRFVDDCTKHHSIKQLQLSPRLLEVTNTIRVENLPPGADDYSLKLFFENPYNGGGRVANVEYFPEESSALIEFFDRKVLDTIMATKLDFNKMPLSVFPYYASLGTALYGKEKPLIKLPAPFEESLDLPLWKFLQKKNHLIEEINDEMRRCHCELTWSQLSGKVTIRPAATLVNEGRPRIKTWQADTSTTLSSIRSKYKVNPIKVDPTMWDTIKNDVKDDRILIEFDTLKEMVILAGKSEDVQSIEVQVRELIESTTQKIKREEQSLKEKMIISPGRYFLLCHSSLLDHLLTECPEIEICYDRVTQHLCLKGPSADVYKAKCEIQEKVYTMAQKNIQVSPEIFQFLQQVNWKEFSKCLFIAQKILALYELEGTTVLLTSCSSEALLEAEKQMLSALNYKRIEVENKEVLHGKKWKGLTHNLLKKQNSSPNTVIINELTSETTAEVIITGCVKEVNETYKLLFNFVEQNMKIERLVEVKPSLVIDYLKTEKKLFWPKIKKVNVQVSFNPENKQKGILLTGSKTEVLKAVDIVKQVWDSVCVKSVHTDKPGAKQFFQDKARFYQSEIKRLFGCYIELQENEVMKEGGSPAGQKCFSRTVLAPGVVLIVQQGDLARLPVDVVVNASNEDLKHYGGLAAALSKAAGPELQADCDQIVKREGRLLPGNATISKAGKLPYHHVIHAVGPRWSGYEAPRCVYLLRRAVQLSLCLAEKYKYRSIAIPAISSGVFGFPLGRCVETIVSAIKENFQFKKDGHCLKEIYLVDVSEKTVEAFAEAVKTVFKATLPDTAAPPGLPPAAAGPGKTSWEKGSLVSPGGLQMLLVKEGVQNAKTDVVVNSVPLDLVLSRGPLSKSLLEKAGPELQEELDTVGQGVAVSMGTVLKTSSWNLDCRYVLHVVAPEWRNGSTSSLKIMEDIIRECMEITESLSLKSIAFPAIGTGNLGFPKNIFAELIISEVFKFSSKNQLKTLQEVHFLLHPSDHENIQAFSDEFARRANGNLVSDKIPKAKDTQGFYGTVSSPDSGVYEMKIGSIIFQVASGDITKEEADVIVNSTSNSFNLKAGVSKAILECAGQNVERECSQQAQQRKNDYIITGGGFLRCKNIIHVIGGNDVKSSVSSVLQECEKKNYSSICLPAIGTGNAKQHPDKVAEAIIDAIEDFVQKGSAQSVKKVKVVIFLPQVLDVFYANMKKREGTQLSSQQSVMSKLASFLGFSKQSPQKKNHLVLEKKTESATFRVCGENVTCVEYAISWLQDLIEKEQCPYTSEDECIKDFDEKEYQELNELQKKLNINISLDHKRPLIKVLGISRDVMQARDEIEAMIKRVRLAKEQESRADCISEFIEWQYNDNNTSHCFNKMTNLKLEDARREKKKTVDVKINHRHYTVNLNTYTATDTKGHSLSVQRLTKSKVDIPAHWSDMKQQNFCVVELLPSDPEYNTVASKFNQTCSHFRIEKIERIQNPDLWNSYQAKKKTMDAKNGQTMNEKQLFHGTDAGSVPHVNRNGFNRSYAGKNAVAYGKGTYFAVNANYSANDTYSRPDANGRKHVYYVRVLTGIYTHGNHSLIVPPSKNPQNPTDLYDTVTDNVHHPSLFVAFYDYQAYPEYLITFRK

Row | SMILES | Km [1] [µM] | Km [2] [µM] | Km [3] [µM] | Km ([4]; PARP1 ART row) [µM] | Km ([4]; PARP1 FL row) [µM] | Km [5] [µM] | IC50 values for PARP1 and -2 lower than those for other family members [6] [fold]
1 | NC(=O)c1ccc[n+]([C@@H]2O[C@H](COP(=O)([O-])OP(=O)(O)OC[C@H]3O[C@@H](n4cnc5c(N)ncnc54)[C@H](O)[C@@H]3O)[C@@H](O)[C@H]2O)c1 [NAD+, nicotinamide adenine dinucleotide] | 62 ± 7 | 50 | 280 | 30 to 130 | 50 | 130 | –
2 | C[C@]1(c2nc3c(C(N)=O)cccc3[nH]2)CCCN1 [Veliparib] | – | – | – | – | – | – | > 100
